Format in all cases: ADME
Series [1] has as its target T1, Cytochrome P450 2B6 (Homo sapiens, UniProt P20813).
T1 sequence (P20813 whole entry): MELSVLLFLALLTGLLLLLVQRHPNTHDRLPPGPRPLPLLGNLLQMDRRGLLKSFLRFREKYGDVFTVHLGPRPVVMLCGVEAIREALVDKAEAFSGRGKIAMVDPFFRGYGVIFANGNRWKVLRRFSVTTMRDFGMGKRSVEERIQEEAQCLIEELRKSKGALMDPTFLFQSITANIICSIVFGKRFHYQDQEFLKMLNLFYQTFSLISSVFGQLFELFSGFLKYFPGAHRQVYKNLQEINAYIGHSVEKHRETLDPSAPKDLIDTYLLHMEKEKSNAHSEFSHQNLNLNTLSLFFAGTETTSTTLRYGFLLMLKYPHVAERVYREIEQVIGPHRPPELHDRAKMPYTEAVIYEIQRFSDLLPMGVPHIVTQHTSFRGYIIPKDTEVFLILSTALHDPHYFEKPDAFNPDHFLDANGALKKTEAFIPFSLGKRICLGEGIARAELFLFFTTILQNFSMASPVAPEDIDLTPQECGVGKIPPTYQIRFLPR
The experiment in a line: Drug metabolism assessed as human recombinant CYP2B6-mediated 17-hydroexemestane formation at 10 uM after 10 mins by Michaelis-Menten saturation curve analysis. As to conditions: recombinant enzyme.

A further series concerns the target T2, Cytochrome P450 4A11 (Homo sapiens, UniProt Q02928).
T2 sequence (Q02928 whole entry): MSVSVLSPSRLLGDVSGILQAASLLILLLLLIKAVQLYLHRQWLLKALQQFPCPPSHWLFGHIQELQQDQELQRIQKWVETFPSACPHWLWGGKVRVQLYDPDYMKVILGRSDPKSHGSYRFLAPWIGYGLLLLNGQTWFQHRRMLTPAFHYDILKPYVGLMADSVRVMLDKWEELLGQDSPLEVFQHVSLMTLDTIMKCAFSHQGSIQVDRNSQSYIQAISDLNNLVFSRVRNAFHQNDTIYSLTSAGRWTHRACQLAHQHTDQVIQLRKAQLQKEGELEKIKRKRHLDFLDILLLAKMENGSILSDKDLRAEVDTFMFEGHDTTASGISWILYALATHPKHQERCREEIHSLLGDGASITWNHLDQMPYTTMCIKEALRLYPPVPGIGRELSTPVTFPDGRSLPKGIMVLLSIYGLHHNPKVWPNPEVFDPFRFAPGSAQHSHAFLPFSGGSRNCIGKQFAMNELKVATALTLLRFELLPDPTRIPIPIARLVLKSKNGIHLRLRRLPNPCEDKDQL
The series can be described thus: Drug metabolism assessed as human recombinant CYP4A11-mediated 17-hydroexemestane formation rate per pmol of enzyme at 10 uM after 10 mins.

The target in series [2] is T1, Cytochrome P450 2B6. The experiment in a line: Drug metabolism assessed as human recombinant CYP2B6-mediated 17-hydroexemestane formation rate per pmol of enzyme at 10 uM after 10 mins.
Another series concerns the target Cytochrome P450 2C19 (Homo sapiens, UniProt P33261). The experiment in a line: Drug metabolism assessed as human recombinant CYP2C19-mediated 17-hydroexemestane formation rate per pmol of enzyme at 10 uM after 10 mins.
In series [3] the test system is Liver microsome. The experiment in a line: Drug metabolism in human liver microsomes assessed as 17-hydroexemestane formation after 10 mins by Michaelis-Menten saturation curve analysis. (Microsomes from liver hold many membrane-bound enzymes, among them those of drug oxidation.)
In series [4] the test system is Liver microsome. The series can be described thus: Drug metabolism in human liver microsomes assessed as 17-hydroexemestane formation at 10 uM after 10 mins by LC-MS/MS analysis.
For a further series, the target named is T3, Aromatase (Homo sapiens, UniProt P11511).
T3 sequence (P11511 whole entry): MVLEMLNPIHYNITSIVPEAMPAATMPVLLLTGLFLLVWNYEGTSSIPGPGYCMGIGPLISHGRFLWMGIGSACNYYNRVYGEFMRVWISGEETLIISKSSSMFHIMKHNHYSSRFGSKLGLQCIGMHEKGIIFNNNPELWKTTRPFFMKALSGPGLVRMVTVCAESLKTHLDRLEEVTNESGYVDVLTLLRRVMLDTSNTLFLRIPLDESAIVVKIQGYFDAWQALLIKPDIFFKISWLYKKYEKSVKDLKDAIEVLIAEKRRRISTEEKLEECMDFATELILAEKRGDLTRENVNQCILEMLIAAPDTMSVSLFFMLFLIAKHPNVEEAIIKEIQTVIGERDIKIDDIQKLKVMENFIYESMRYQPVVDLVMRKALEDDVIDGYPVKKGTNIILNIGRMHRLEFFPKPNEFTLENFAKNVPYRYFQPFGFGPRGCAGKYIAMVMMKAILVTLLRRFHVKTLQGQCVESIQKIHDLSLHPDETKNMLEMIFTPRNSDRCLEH
The experiment in a line: Drug metabolism assessed as human recombinant CYP19-mediated 17-hydroexemestane formation at 10 uM after 10 mins by Michaelis-Menten saturation curve analysis. As to conditions: recombinant enzyme.

A further series has as its target T4, Cytochrome P450 1A2 (Homo sapiens, UniProt P05177).
T4 sequence (P05177 whole entry): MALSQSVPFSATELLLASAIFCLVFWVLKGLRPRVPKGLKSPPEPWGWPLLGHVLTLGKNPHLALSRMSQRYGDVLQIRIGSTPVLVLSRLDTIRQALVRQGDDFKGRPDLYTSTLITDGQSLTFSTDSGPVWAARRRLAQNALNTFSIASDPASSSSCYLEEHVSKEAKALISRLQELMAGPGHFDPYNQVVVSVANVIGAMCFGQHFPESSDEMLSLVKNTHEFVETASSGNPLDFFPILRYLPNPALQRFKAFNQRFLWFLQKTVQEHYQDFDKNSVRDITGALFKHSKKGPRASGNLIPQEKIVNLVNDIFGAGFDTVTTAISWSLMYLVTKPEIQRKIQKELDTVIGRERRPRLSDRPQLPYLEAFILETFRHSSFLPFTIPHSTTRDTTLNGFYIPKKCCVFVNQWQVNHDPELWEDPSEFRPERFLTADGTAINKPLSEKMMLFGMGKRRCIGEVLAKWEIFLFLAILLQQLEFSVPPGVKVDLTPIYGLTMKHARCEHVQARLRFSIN
The experiment in a line: Drug metabolism assessed as human recombinant CYP1A2-mediated 17-hydroexemestane formation at 10 uM after 10 mins by Michaelis-Menten saturation curve analysis. The following applies: recombinant enzyme.

Chain of Cytochrome P450 2C19 (P33261 whole entry): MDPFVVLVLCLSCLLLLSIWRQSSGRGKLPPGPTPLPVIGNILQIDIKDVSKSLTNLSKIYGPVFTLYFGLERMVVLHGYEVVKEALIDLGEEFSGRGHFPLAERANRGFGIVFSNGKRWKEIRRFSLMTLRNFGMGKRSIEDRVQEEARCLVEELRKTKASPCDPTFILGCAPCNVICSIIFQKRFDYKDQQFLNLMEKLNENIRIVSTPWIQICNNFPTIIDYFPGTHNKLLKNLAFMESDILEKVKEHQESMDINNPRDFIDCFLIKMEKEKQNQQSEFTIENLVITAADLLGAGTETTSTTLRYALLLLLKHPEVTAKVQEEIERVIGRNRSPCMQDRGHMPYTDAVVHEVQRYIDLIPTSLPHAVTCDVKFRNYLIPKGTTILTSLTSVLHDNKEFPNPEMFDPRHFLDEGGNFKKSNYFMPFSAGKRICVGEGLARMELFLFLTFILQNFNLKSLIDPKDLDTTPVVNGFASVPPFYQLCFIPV

The term Km denotes the concentration of substrate that gives half-maximal velocity. On to `C=C1C[C@@H]2[C@H](CC[C@]3(C)C(O)CC[C@@H]23)[C@@]2(C)C=CC(=O)C=C12` (stereo not given in full), for which the entries for the “Vmax(app)” value at Cytochrome P450 2B6 [1], in the series with Liver microsome [3] and in the series on Liver microsome [4] were 3.9 pmol/mg/min, 222.4 pmol/mg/min and 137.32 pmol/mg/min, respectively. The figures for the Km at Cytochrome P450 2B6 [1] (read-out: Km(app)) and in the series on Liver microsome [3] (read-out: Km(app)) were 177 µM and 13.7 µM, respectively. Also, the Drug metabolism at Cytochrome P450 4A11 is on record as 0.48 pmol/min; at Cytochrome P450 2B6 [2], 0.3 pmol/min; at Cytochrome P450 2C19, “metabolite_not_detected”; at Aromatase, “metabolite_detected”; at Cytochrome P450 1A2, “metabolite_detected”.

The values are drawn from ChEMBL document CHEMBL3525953, “In vitro cytochrome P450-mediated metabolism of exemestane” (Drug Metab Dispos, 2011).
